From patent US20230285442A1, “USE OF OLIGOCHITOSANS AND DERIVATIVES THEREOF FOR NEUTRALIZING VIRAL AGENTS” (priority 2020, published 2023)

How the values were obtained:
HIV-89.6 = test: HIV binding in culture supernatant, total HIV RNA in supernatant; settings: non-sulfated, unmodified oligochitosan
Method: The desired compound in PBS or DMSO was incubated with virus for 30 min and then centrifuged. Total RNA isolated from supernatant was quantified. The assay was done in triplicate.
Medium/blood samples. To ensure uniformity and reproducibility, standards with known viral copy numbers of HIV89.6 (NIH NIAID repository) were prepared. A known amount of virus was spiked into cell culture medium in ten-fold serial dilutions. HIV-1 RNA was extracted using the High Pure viral RNA kit (Ambion). Complementary DNA (cDNA) was synthesized with the SuperScript III cDNA Synthesis Kit (Invitrogen) and amplified and quantified using primers specific for HIV-1 LTR. Real-time PCR amplification was performed in a CFX96™ Real-Time system (Bio-Rad, Hercules, CA). […] HIV-1 specific amplicons were detected using SYBR Green (Bio-Rad). The number of HIV-1 RNA copies in each test template was measured by its threshold cycle (Ct) as determined from the curve of serially diluted standards using data analysis software (Bio-Rad CFX Manager). […] Quantification of HIV-1 RNA in each test sample was back calculated and viral load was expressed as copies/ml. […]
Quantitative real time PCR was performed using BioRad CFX 96 with the known amounts of HIV-1 RNA as standards. The starting quantity of HIV-1 RNA in the samples treated with different compounds was determined using the standard curve and is plotted on the graph. […]

HIV-1 89.6 = test: Anti-HIV activity in PBMC culture ex vivo, p24 in culture supernatants; format: cell-based, human; settings: PBMCs infected with HIV-1 89.6, day 3 of the culture
Method: PBMCs were treated with NCD1 or not treated, followed by infection with HIV-1 89.6. Samples were pelleted on days 0, 2, and 3. Culture supernatants were assayed for p24 concentration. The assay was done in triplicate.
HIV p24 Assay: HIV-1 p24 ELISA was performed using HIV-1 p24 antigen capture assay according to manufacturer's protocol (Advanced BioSciences Laboratory).
To confirm the activity of the newly synthesized compounds in HIV infected human cells, peripheral blood mononuclear cells (PBMCs) from healthy humans were cultured and parallel assays with PBMCs treated with NCD1 and samples with no treatment were run, followed by infection with HIV-1 89.6. Samples were pelleted on days 0, 2, and 3. Culture supernatants were assayed for p24 concentration.

Solubility in water = format: physicochemical

| Substance | binding to HIV (HIV-89.6) | p24 levels in culture supernatants, treated vs non-treated cells (HIV-1 89.6) | solubility in water (Solubility in water) |
| --- | --- | --- | --- |
| Oligochitosan 10 kDa [NCD1] | surprising and unexpected binding to HIV | significantly reduced | soluble |
| Starch azure [NCD9] | – | – | insoluble in water |
